Measured values as given in ChEMBL document CHEMBL1142528 (J Med Chem, 2008).
pKi: −log10 of the molar value.

Tests used:
[1] = target: 5-hydroxytryptamine receptor 2A (Homo sapiens, UniProt P28223); assay: Displacement of [3H]ketanserin from 5HT2A receptor expressed in NIH3T3 cells; assay type: cell-based
[2] = target: 5-hydroxytryptamine receptor 2A (Homo sapiens, UniProt P28223, F340L); assay: Displacement of [3H]ketanserein from 5HT2A receptor F340L mutant expressed in NIH3T3 cells; assay type: cell-based
5-hydroxytryptamine receptor 2A (Homo sapiens, UniProt P28223, F340L), sequence (P28223 whole entry F340L): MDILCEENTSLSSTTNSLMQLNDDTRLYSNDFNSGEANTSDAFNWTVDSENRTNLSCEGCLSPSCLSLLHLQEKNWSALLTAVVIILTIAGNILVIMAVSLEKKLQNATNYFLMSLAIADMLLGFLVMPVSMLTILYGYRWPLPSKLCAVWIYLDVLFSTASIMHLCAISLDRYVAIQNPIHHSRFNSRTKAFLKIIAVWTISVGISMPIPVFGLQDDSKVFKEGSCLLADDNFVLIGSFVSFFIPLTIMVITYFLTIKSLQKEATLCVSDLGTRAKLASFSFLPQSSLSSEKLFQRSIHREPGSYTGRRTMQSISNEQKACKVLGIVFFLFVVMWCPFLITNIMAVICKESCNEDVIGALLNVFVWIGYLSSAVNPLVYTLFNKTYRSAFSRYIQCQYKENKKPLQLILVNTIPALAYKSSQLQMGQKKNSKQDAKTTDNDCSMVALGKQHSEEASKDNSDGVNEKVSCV

[3] = target: Sodium-dependent noradrenaline transporter (Homo sapiens, UniProt P23975); assay: Displacement of [3H]nisoxitine from NET
Sodium-dependent noradrenaline transporter, sequence (P23975 whole entry): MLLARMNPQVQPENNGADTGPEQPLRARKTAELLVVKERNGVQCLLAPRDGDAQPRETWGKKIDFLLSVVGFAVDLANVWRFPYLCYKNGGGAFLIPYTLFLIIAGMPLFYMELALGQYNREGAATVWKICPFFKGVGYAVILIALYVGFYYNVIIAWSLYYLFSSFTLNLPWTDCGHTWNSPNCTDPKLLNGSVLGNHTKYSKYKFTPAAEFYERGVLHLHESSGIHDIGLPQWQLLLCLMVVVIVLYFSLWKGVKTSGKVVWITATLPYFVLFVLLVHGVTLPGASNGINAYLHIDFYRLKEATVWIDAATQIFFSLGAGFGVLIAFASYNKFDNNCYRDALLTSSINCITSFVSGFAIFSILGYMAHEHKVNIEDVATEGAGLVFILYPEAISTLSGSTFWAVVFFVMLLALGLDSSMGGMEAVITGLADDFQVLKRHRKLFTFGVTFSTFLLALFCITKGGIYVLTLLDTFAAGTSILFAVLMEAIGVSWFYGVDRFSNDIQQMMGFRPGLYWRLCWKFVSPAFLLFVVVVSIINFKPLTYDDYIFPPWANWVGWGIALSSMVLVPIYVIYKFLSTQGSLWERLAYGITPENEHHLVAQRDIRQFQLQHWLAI

[4] = target: T1, 5-hydroxytryptamine receptor 2C (Homo sapiens, UniProt P28335); assay: Displacement of [3H]mesulergine from 5HT2C receptor
T1 sequence (P28335 whole entry): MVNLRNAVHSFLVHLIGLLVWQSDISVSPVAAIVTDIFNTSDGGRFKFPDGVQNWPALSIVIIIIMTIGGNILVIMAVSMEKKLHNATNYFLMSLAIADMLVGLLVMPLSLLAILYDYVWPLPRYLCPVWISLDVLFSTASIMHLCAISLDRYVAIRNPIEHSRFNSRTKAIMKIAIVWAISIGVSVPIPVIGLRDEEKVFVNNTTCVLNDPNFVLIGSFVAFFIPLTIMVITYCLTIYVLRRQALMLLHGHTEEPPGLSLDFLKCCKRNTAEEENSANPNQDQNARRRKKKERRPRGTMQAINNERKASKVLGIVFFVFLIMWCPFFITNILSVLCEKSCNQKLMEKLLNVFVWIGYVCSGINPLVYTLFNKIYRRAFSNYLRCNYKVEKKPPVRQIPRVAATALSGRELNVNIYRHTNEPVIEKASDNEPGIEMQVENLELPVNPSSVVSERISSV

D(2) dopamine receptor = D(2) dopamine receptor (Homo sapiens, UniProt P14416); assay: Displacement of [3H]spiperone from dopamine D2 receptor
D(2) dopamine receptor, sequence (P14416 whole entry): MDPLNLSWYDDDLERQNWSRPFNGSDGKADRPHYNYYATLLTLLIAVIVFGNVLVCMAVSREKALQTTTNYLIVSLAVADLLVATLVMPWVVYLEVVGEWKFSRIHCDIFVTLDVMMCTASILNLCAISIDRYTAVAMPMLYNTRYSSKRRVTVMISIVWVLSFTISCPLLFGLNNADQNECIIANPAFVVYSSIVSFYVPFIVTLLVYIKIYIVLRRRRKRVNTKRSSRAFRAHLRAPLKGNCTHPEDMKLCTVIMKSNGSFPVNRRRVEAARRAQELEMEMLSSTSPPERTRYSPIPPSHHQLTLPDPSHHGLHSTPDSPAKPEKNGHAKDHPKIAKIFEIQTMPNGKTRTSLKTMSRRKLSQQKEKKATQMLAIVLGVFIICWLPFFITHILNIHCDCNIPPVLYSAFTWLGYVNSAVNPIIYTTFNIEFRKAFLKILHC

[5] = target: Sodium-dependent serotonin transporter (Homo sapiens, UniProt P31645); assay: Displacement of [3H]paroxitine from SERT
Sodium-dependent serotonin transporter, sequence (P31645 whole entry): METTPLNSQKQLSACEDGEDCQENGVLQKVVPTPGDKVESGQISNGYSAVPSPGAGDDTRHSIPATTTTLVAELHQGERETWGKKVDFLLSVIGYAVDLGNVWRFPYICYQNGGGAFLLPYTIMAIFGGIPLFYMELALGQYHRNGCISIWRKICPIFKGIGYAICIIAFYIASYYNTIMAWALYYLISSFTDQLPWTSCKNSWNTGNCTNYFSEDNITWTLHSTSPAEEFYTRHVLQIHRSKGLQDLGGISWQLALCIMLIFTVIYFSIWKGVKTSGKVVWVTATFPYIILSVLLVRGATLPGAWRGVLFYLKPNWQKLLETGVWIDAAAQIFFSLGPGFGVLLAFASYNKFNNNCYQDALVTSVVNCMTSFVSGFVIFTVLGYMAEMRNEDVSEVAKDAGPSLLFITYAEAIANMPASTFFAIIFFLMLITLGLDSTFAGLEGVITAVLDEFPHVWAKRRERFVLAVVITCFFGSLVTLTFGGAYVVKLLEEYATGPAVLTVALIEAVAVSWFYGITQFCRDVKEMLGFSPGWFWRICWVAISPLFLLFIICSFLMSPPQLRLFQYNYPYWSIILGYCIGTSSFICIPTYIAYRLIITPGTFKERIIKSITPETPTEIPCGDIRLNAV

5-hydroxytryptamine receptor 2A (Homo sapiens, UniProt P28223), sequence (P28223 whole entry): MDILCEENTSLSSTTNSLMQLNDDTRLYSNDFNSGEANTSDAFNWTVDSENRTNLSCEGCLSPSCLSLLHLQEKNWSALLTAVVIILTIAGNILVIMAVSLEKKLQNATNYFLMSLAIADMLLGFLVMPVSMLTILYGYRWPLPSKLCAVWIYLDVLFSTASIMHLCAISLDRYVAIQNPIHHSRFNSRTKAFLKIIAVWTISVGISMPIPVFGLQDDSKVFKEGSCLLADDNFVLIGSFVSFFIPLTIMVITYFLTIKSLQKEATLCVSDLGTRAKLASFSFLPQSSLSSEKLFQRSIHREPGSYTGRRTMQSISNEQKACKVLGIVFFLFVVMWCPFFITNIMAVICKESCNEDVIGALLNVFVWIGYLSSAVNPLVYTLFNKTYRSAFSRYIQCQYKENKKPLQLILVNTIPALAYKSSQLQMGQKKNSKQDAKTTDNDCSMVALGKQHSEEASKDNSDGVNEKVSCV

SMILES | pKi [1] | further results
NCCc1ccc(CCCc2ccccc2)cc1 | 7.22 | –
CCCCCOc1ccc2c(c1)Cc1ccccc1C2CN (stereo not drawn) | 7.64 | –
CCCCCCc1cc(OC)c(CC(C)N)cc1OC (stereo not drawn) | 8.60 | –
NCC(c1ccccc1)c1ccc(Br)cc1 (stereo not drawn) | 6.59 | pKi [2]: 8.46
NCC1c2ccccc2Cc2ccccc21 | – | pKi [3]: < 5.00; pKi [4]: 7.37; pKi (D(2) dopamine receptor): < 5.00; pKi [5]: < 5.00
NCCc1ccc(Br)cc1 | 5.75 | –
CCCCCCc1ccc(CCN)cc1 | 7.11 | –
NCC1c2ccccc2Cc2cc(O)ccc21 (stereo not drawn) | 6.97 | –
CCCCCCc1ccc(C(CN)c2ccccc2)cc1 (stereo not drawn) | 6.70 | –
NCC1c2ccccc2Cc2cc(CCCc3ccccc3)ccc21 (stereo not drawn) | 8.49 | –
COc1cc(CC(C)N)c(OC)cc1CCCc1ccccc1 (stereo not drawn) | 8.00 | –
COc1cc(CC(C)N)c(OC)cc1O (stereo not drawn) | < 4.30 | –
COc1cc(OC)c(OC)cc1CC(C)N (stereo not drawn) | 5.92 | –
NCC1c2ccccc2Cc2cc(Br)ccc21 (stereo not drawn) | 8.89 | pKi [2]: 8.74; pKi [3]: 5.35; pKi [4]: 8.48; pKi (D(2) dopamine receptor): < 5.00; pKi [5]: 5.92
CCCCCCc1ccc2c(c1)Cc1ccccc1C2CN (stereo not drawn) | 8.15 | pKi [3]: 6.07; pKi [4]: 7.21; pKi (D(2) dopamine receptor): 5.20; pKi [5]: 6.31
